Measurements reported in patent publication US20260199289A1, “USE OF GLYCOGEN METABOLISM INHIBITORS FOR THE TREATMENT OF CANCER” (THE UNIVERSITY OF VERMONT AND STATE AGRICULTURAL COLLEGE, priority 2022, published 2026).
“Also recorded” adds a separate entry of the source.

Tests used:
8505C cells [1] = assay: Glycogen content (colorimetric assay, TEM) in ATC cells; assay type: cell-based, human; details: for glycogen content: 8505C cells, overnight treatment
Protocol: Transmission Electron Microscopy of Glycogen Deposits—Cells were seeded in 10 cm dishes and allowed to adhere overnight. […] Cells were then rinsed with PBS and lifted with trypsin for preparation for TEM as described previously. Thwe et al., “Cell-intrinsic Glycogen Metabolism Supports Early Glycolytic Reprogramming Required for Dendritic Cell Immune Responses,” Cell Metabolism 26:558-567.e555 (2017), which is hereby incorporated by reference in its entirety.
PYGB RNA Interference—For validating successful PYGB knockdown, 4.0×10^4 cells were plated in 12 well plates containing 0.2% Lipofectamine™ 3000 Transfection Reagent and the indicated concentration of siRNA targeting PYGB or control siRNA in 1 ml CTM. RNA was extracted 72 hours later for RT-qPCR analysis and protein was extracted 96 hours later for immunoblotting. For measuring the effect of PYGB knockdown on cell viability, 1.0×10^3 cells were seeded in 96 well plates with 0.15% Lipofectamine™ 3000 Transfection Reagent and the indicated concentration of siRNA targeting PYGB or control siRNA in 200 μl CTM for 7 days before conducting the SRB assay. For measuring the effect of PYGB knockdown on glycogen content, 6.5×10^5 cells were seeded in 10 cm dishes with 0.2% Lipofectamine™ 3000 Transfection Reagent and the indicated concentration of siRNA targeting PYGB or control siRNA in 10 ml CTM for 4 days preceding cell lysis for glycogen determination.
Quantification of Levels of Glycogen, Glucose-1-Phosphate, Glucose-6-Phosphate, Lactate, ATP, Glucose, NADPH, and Glutathione—Briefly, cells were seeded in 10 cm dishes (for measuring glycogen and NADPH), 6 well plates (GIP, G6P, lactate, glucose, and glutathione), or 96 well plates (ATP) and allowed to adhere overnight. CTM was aspirated and cells were rinsed with PBS before application of compounds dissolved in CTM for 24 hours, at which point cells were ~90% confluent. CTM was then aspirated, cells were rinsed with PBS, and lysed according to the respective manufacturer protocol (see Table 4) for metabolite analysis.

purified GYS1 = biological target: T1, purified GYS1 (Homo sapiens, UniProt P13807); details: cited from earlier work
T1 sequence (P13807 1-737): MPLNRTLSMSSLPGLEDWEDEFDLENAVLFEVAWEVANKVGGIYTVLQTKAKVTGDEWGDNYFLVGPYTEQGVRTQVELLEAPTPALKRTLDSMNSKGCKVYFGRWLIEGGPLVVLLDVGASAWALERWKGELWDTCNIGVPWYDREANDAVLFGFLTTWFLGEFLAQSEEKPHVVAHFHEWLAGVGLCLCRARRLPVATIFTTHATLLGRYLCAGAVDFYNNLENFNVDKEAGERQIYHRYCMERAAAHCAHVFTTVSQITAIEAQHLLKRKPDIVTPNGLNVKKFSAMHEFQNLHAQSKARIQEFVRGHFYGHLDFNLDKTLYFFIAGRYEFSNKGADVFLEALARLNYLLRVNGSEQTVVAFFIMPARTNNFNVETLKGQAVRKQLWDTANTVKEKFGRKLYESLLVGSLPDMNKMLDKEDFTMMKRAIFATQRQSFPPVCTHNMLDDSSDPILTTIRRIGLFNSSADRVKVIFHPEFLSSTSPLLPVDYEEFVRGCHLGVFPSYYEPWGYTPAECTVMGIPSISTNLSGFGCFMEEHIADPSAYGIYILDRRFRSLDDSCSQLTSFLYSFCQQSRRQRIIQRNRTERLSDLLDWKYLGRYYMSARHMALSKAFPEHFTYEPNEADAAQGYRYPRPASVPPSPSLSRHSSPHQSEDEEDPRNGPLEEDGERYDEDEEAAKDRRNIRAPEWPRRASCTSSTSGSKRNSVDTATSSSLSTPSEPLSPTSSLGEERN

8505C cells [2] = assay: SRB cell viability assay in ATC cells; assay type: cell-based, human; details: 8505C ATC cells; indicated concentrations, 48 hours
Protocol: In Vitro Cell Staining for Measuring Drug Efficacy—Thyroid cells (4.0×10^3) were seeded in 96 well plates with 100 μl CTM and allowed to adhere overnight. 100 μl of CTM containing 2× concentration of compound was overlayed in each well for 48 hours unless otherwise indicated. Each well then received 100 μl of 10% w/v cold trichloroacetic acid (Fisher) and incubated at 4° C. for 1 hour to fix the cells. Each well was rinsed 3× with DI H2O and stained with 100 μl 0.057% w/v sulforhodamine B (SRB, Sigma-Aldrich) for 30 minutes at room temperature in the dark. Wells were washed 4× with 300 μl 1% v/v acetic acid (Fisher), and remaining SRB stain was solubilized with 200 μl of 10 mM Tris buffer, pH 10.5 (Fisher). Absorbance was measured at 564 nm with a Synergy 2 Multi-Detection Microplate Reader (Agilent Technologies) and normalized to a vehicle control. Drug synergy was evaluated using the coefficient of drug interaction (CDI) formula: CDI=AB/(A×B)×100, where AB is the percent remaining cells of an indicated combination treatment, A is the average percent remaining cells of agent 1 alone, and B is the average percent remaining cells of agent 2 alone. […] Hao et al., “Effect of Lumiracoxib on Proliferation and Apoptosis of Human Nonsmall Cell Lung Cancer Cells In vitro,” Chin Med J (Engl) 121:602-607 (2008), which is hereby incorporated by reference in its entirety. […]

cell lysates = details: cited from earlier work
OCUT-2 cells = assay: SRB cell viability assay in OCUT-2 cells; assay type: cell-based, human; details: indicated concentrations, 48 hours
Protocol: In Vitro Cell Staining for Measuring Drug Efficacy—Thyroid cells (4.0×10^3) were seeded in 96 well plates with 100 μl CTM and allowed to adhere overnight. 100 μl of CTM containing 2× concentration of compound was overlayed in each well for 48 hours unless otherwise indicated. Each well then received 100 μl of 10% w/v cold trichloroacetic acid (Fisher) and incubated at 4° C. for 1 hour to fix the cells. Each well was rinsed 3× with DI H2O and stained with 100 μl 0.057% w/v sulforhodamine B (SRB, Sigma-Aldrich) for 30 minutes at room temperature in the dark. Wells were washed 4× with 300 μl 1% v/v acetic acid (Fisher), and remaining SRB stain was solubilized with 200 μl of 10 mM Tris buffer, pH 10.5 (Fisher). Absorbance was measured at 564 nm with a Synergy 2 Multi-Detection Microplate Reader (Agilent Technologies) and normalized to a vehicle control. Drug synergy was evaluated using the coefficient of drug interaction (CDI) formula: CDI=AB/(A×B)×100, where AB is the percent remaining cells of an indicated combination treatment, A is the average percent remaining cells of agent 1 alone, and B is the average percent remaining cells of agent 2 alone. […] Hao et al., “Effect of Lumiracoxib on Proliferation and Apoptosis of Human Nonsmall Cell Lung Cancer Cells In vitro,” Chin Med J (Engl) 121:602-607 (2008), which is hereby incorporated by reference in its entirety.

[3] = system: mouse embryonic fibroblasts; details: cited from earlier work
[4] = cited from earlier work

| Compound | glycogen content (8505C cells [1]) | inhibition of purified GYS1 (purified GYS1) | cell viability (SRB assay) (8505C cells [2]) | 14C-glucose incorporation (cell lysates) | decrease of glycogen stores (8505C cells [1]; ATC cells, stated as comparable to the literature value) | cell viability (SRB assay) (OCUT-2 cells) | decrease of glycogen stores [3] | glycogen storage in rat brains [4] |
| --- | --- | --- | --- | --- | --- | --- | --- | --- |
| Oc1ccc(-c2c(-c3ccc(O)c(O)c3O)n[nH]c2C(F)(F)F)cc1 [yGsy2p-IN-1] | decrease glycogen content; also recorded: successfully reduced glycogen levels | robustly inhibited purified GYS1 | limit ATC viability; also recorded: limited cell viability in ATC cells | decreased 14C-glucose incorporation in cell lysates | – | – | – | – |
| COc1ccccc1O [guaiacol] | decrease | – | decrease ATC cell viability | – | ~50% | decrease ATC cell viability | 50% | – |
| CON(C)C(=O)[C@H](O)[C@H](Cc1ccccc1)NC(=O)c1cc2cc(Cl)ccc2[nH]1 [CP316819, 5-chloro-N-[(2S,3R)-3-hydroxy-4-[methoxy(methyl)amino]-4-oxo-1-phenylbutan-2-yl]-1H-indole-2-carboxamide] | increased the glycogen content | – | sensitive; also recorded: limited cell viability | – | – | – | – | enhanced glycogen storage in rat brains |
